Test results as given in US20070191317A1, “VITAMIN D ANALOG - RAK, METHODS AND USES THEREOF” (WISCONSIN ALUMNI RESEARCH FOUNDATION, priority 2006, published 2007).
“Also recorded” adds a separate entry of the source.

Assays:
[1] = molecular target: T1, full-length recombinant rat vitamin D receptor (Rattus norvegicus, UniProt P13053); assay: Vitamin D receptor competitive binding with [3H]-1,25-(OH)2-D3; details: relative to 1α,25-dihydroxyvitamin D3; FIG. 1
T1 construct: Full-length recombinant rat receptor was expressed in E. coli; histidine tag (C); made in house; host or cells: E. coli BL21(DE3) Codon Plus RIL
T1 sequence (P13053 1-423): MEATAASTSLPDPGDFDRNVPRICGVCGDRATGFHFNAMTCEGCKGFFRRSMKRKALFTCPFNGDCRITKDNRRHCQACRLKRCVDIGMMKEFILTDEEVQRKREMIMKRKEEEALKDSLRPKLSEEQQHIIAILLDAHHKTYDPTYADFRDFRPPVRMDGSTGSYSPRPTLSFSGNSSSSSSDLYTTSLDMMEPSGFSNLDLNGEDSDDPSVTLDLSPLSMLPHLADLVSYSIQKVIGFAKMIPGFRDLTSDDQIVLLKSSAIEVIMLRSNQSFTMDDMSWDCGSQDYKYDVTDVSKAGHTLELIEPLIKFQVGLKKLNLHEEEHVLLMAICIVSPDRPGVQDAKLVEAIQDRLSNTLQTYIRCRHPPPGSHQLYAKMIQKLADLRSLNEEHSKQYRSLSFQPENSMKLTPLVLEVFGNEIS
Procedure: The first system was a nickel affinity resin that utilizes the C-terminal histidine tag on this protein. The protein that was eluted from this resin was further purified using ion exchange chromatography (S-Sepharose Fast Flow). Aliquots of the purified protein were quick frozen in liquid nitrogen and stored at −80° C. until use. For use in binding assays, the protein was diluted in TEDK50 (50 mM Tris, 1.5 mM EDTA, pH7.4, 5 mM DTT, 150 mM KCl) with 0.1% Chaps detergent. The receptor protein and ligand concentration was optimized such that no more than 20% of the added radiolabeled ligand was bound to the receptor.
The following day, 100 mcl of hydroxylapatite slurry (50%) was added to each tube and mixed at 10-minute intervals for 30 minutes. The hydroxylapaptite was collected by centrifugation and then washed three times with Tris-EDTA buffer (50 mM Tris, 1.5 mM EDTA, pH 7.4) containing 0.5% Titron X-100. After the final wash, the pellets were transferred to scintillation vials containing 4 ml of Biosafe II scintillation cocktail, mixed and placed in a scintillation counter. Total binding was determined from the tubes containing only radiolabeled ligand.

HL-60 cells = assay: HL-60 differentiation (nitro blue tetrazolium reduction); type: cell-based, human; details: relative to 1α,25-dihydroxyvitamin D3; FIG. 4
Procedure: FIG. 4 is a graph comparing the percent HL-60 cell differentiation as a function of the concentration of RAK with that of 1,25(OH)2D3.
The study drugs were dissolved in ethanol and the concentrations determined using UV spectrophotometry. Serial dilutions were prepared so that a range of drug concentrations could be tested without changing the final concentration of ethanol (<0.2%) present in the cell cultures.
Human promyelocytic leukemia (HL60) cells were grown in RPMI-1640 medium containing 10% fetal bovine serum. The cells were incubated at 37° C. in the presence of 5% CO2.
HL60 cells were plated at 1.2×10^5 cells/ml. Eighteen hours after plating, cells in duplicate were treated with drug. Four days later, the cells were harvested and a nitro blue tetrazolium reduction assay was performed (Collins et al., 1979; J. Exp. Med. 149:969-974). The percentage of differentiated cells was determined by counting a total of 200 cells and recording the number that contained intracellular black-blue formazan deposits. Verification of differentiation to monocytic cells was determined by measuring phagocytic activity (data not shown).

[2] = test system: 24-hdyroxylase (24Ohase) gene promoter; assay: In vitro transcription assay (luciferase reporter) in ROS 17/2.8 (bone) cells; type: cell-based; details: Ros17/2.8 (bone) cells, relative to 1α,25-dihydroxyvitamin D3; FIG. 5
Procedure: FIG. 5 is a graph comparing the in vitro transcription activity of RAK with that of 1,25(OH)2D3.
Transcription activity was measured in ROS 17/2.8 (bone) cells that were stably transfected with a 24-hdyroxylase (24Ohase) gene promoter upstream of a luciferase reporter gene (Arbour et al., 1998). Cells were given a range of doses. Sixteen hours after dosing the cells were harvested and luciferase activities were measured using a luminometer. (RLU=relative luciferase units)

[3] = Intestinal calcium transport (everted gut sac method); type: in vivo, Sprague-Dawley rats; details: rats, ip; at equimolar quantities of the dose of 1α,25-dihydroxyvitamin D3; FIG. 3
Procedure: FIG. 3 is a bar graph comparing the intestinal calcium transport activity of RAK with that of 1,25(OH)2D3.
(§1) Male, weanling Sprague-Dawley rats were placed on Diet 11 (0.47% Ca) diet+AEK for one week followed by Diet 11 (0.02% Ca)+AEK for 3 weeks. The rats were then switched to a diet containing 0.47% Ca for one week followed by two weeks on a diet containing 0.02% Ca. Dose administration began during the last week on 0.02% calcium diet. Four consecutive ip doses were given approximately 24 hours apart. Twenty-four hours after the last dose, blood was collected from the severed neck and the concentration of serum calcium determined as a measure of bone calcium mobilization. The first 10 cm of the intestine was also collected for intestinal calcium transport analysis using the everted gut sac method.

[4] = Bone calcium mobilization (serum calcium); type: in vivo, Sprague-Dawley rats; details: rats, ip, FIG. 2
Procedure: FIG. 2 is a bar graph comparing the bone calcium mobilization activity of RAK with that of 1,25(OH)2D3.
as §1

vitamin D receptors = molecular target: T2, vitamin D receptors (Homo sapiens, UniProt P11473); details: cited from earlier work
T2 sequence (P11473 1-427): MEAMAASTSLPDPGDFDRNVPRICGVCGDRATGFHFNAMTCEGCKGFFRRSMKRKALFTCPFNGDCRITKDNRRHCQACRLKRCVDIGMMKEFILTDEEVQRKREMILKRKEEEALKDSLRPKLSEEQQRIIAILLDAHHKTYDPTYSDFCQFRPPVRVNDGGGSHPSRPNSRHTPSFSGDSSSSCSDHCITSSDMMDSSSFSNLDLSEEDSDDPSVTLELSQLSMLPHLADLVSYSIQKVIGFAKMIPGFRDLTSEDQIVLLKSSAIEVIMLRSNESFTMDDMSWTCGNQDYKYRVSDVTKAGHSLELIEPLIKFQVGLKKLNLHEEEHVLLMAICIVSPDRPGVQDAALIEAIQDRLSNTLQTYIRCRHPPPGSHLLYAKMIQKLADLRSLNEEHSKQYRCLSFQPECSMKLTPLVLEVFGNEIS

[5] = cited from earlier work; for calcemic activity: as compared to 1α,25-dihydroxyvitamin D3

Compound: C=C1[C@H](O)CC(=C/C=C2\CCC[C@]3(C)[C@@H]([C@H](C)CCCC(C)O)CC[C@@H]23)C[C@H]1O (stereo partly drawn) [RAK, (20R,25R)-2-Methylene-19,26-dinor-1α,25-dihydroxyvitamin D3]
- binding to the recombinant vitamin D receptor [1]: comparable to 1α,25-dihydroxyvitamin D3; also recorded: relatively high binding
- inducing differentiation of HL-60 cells (HL-60 cells): equally active as 1α,25-dihydroxyvitamin D3
- stimulating transcription of a reporter gene [2]: equally active
- calcemic activity measured by intestinal calcium transport [3]: limited calcemic activity; also recorded: very low intestinal calcium transport activity
- calcemic activity measured by bone calcium mobilization ([4]; at 27 time molar quantity of the dose of 1α,25-dihydroxyvitamin D3): limited calcemic activity
- calcemic activity measured by bone calcium mobilization ([4]; at equimolar quantities of the dose of 1α,25-dihydroxyvitamin D3): limited calcemic activity; also recorded: very low ability to mobilize calcium from bone

Compound: C=C1[C@H](O)CC(=C/C=C2\CCC[C@]3(C)[C@@H](CC)CC[C@@H]23)C[C@H]1O [1α-hydroxy-2-methylene-19-nor-pregnacalciferol]
- binding activity to vitamin D receptors (vitamin D receptors): relatively high binding activity
- calcemic activity [5]: little if any calcemic activity

Compound: 1α-hydroxy-2-methylene-19-nor-bishomopregnacalciferol
- binding activity to vitamin D receptors (vitamin D receptors): relatively high binding activity
- calcemic activity [5]: little if any calcemic activity

Compound: C[C@H](CCCC(C)(C)O)[C@H]1CC[C@H]2/C(=C/C=C3C[C@@H](O)C[C@H](O)C3)CCC[C@]12C [1α,25-dihydroxy-19-nor-vitamin D3]
- calcium mobilizing activity ([5]; in vivo): very low

Compound: 1α-hydroxy-2-methylene-19-nor-(20S)-homopregnacalciferol
- binding activity to vitamin D receptors (vitamin D receptors): relatively high binding activity
- calcemic activity [5]: little if any calcemic activity
